According to patent US8586591B2, “Aminopyrazine derivative and medicine” (Nippon Shinyaku Co., Ltd., priority 2009, dated 2013):
Where a name gives a salt, the structure may show the parent alone. Read-outs that look alike come from different tables or passages of the source.

Legend:
JAK3 tyrosine kinase = target: T1, JAK3 tyrosine kinase (Homo sapiens, UniProt P52333); assay: Test 1: inhibitory activity to JAK3 tyrosine kinase (ELISA); type: biochemical; conditions: 25 μM ATP in substrate solution, 30° C. for 1 hour, n=2
T1 construct: purchased Carnabioscience Co
T1 sequence (P52333 1-1124): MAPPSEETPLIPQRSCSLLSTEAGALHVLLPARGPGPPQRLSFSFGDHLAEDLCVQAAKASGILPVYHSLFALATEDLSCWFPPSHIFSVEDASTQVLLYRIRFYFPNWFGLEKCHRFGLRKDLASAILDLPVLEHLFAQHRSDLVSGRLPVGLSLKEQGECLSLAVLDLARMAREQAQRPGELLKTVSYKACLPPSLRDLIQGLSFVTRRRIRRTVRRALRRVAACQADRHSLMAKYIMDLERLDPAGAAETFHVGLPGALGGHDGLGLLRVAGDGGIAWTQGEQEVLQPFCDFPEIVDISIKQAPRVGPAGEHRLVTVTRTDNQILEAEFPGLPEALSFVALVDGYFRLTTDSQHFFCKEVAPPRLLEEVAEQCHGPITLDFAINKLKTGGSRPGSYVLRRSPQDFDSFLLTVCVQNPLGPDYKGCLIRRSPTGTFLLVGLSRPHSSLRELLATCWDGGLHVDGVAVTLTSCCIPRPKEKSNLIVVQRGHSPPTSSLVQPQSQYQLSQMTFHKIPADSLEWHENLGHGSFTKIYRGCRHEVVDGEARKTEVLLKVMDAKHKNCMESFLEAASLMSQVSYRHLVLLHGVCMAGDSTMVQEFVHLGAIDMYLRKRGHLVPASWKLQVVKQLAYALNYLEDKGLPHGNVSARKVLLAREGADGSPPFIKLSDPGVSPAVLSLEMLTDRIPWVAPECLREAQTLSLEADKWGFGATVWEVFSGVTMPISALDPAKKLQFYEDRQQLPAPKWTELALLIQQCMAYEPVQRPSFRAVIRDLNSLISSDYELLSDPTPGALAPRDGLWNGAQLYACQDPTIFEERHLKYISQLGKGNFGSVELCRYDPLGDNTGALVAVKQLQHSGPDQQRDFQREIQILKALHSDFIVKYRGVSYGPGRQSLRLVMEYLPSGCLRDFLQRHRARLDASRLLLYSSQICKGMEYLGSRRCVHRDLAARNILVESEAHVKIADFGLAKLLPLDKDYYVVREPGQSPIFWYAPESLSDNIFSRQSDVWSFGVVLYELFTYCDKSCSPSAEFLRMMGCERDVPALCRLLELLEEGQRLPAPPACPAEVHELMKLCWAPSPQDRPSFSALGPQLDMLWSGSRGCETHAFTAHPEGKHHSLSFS
Summary of the method: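 ELISA of JAK3 kinase activity with absorbance read at 450 nm. Compounds were tested from DMSO dilution series at 100-fold the measurement concentrations (1000–0.01 μM), diluted up to 20 times in assay buffer, against a DMSO negative control. IC50 was estimated by non-linear regression of absorbance.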

[1] = target: BaF3 cells into which JAK2 V617F gene was introduced (Homo sapiens, UniProt O60674, V617F, cells depend on it); assay: Test 2: growth inhibitory action against variant JAK2 expressed cells (MTT method); type: cell-based; conditions: incubation for 3 days, triplicate, read-out: concentration of the test material which inhibited 50% of the cell growth (IC50)
Chain of BaF3 cells into which JAK2 V617F gene was introduced (O60674 whole entry V617F): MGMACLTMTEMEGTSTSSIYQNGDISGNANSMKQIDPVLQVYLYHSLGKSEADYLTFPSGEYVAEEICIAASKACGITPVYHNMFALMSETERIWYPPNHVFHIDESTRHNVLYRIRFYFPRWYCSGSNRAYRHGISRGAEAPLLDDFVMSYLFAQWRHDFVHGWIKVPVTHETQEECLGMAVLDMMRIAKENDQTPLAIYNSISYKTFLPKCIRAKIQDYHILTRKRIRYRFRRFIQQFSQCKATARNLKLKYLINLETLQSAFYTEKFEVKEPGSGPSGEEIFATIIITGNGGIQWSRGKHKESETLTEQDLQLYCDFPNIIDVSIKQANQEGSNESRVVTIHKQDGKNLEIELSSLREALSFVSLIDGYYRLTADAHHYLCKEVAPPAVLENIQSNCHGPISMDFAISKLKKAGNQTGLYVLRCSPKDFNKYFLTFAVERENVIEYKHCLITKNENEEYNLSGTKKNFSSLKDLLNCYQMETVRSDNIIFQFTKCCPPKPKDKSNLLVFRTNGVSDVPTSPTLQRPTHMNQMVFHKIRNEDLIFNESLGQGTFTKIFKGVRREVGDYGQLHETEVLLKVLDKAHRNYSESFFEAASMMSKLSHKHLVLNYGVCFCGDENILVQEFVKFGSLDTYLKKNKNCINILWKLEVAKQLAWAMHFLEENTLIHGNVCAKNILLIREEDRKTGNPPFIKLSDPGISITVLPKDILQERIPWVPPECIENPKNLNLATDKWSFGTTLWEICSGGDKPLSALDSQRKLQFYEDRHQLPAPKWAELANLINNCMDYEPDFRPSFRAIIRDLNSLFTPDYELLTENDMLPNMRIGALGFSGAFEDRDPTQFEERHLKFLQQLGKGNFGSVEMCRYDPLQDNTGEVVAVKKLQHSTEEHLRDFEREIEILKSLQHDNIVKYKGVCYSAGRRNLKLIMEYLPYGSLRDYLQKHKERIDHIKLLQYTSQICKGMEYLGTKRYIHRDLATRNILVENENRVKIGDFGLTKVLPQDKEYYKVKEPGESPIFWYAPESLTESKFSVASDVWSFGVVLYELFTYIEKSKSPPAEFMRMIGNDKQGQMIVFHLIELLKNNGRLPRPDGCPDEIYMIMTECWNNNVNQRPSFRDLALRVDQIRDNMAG
Procedure: Test 2: Growth inhibitory action against variant JAK2 expressed cells
BaF3 cells into which JAK2 V617F gene was introduced ([…]) were inoculated on a 96-well plate in an amount of 1×10^3 cells/well and allowed to stand in a CO2 incubator. Next day, the test material was added to the cells. The test material was serially diluted with DMSO to give 10 mM, 6 mM, 3 mM, 1 mM, 600 μM, 300 μM, 100 μM, 60 μM, 30 μM, or 10 μM solution. This was diluted 100 times with distilled water to give 100 μM, 60 μM, 30 μM, 10 μM, 6 μM, 3 μM, 1 μM, 600 nM, 300 nM, or 100 nM solution. This solution of test material was added to the well in an amount of 10 μl/well. As a negative control, 1% DMSO solution was added to the well in an amount of 10 μl/well. In the above operation, the final concentration of the test material became 10 μM, 6 μM, 3 μM, 1 μM, 600 nM, 300 nM, 100 nM, 60 nM, 30 nM, 10 nM, or 0 nM (0.1% DMSO solution). The addition of the test material solution to each well was made in triplicate.
After continuous incubation for 3 days, the viable count was determined by an MTT method. The MTT method was carried out as follows. First, 10 μl each of solution containing 5 mg/ml of MTT (3-(4,5-dimethylthiazol-2-yl)-2,5-diphenyltetrazolium bromide) was added to each well. The plate was allowed to stand in a CO2 incubator for 4 hours, and then 100 μl of 0.04N HCl/2-propanol solution was added to each well to stop the reaction. The generated MTT-formazan was dissolved well with a multi-channel pipette, and the absorbance at 595 nm was measured with reference to that at 655 nm (Thermo Co.; Multiskan FC). Non-linear regression analysis was made by means of a SAS system (SAS Institute Inc.), and the concentration (IC50) of the test material which inhibited 50% of the cell growth was estimated.

JAK2 tyrosine kinase = target: T2, JAK2 tyrosine kinase (Homo sapiens, UniProt O60674); assay: Test 1: inhibitory activity to JAK2 tyrosine kinase (ELISA); type: biochemical; conditions: 25 μM ATP in substrate solution, 30° C. for 1 hour, n=2
T2 construct: purchased Carnabioscience Co
T2 sequence (O60674 whole entry): as the sequence (O60674 whole entry V617F) above, with F617V counted along it
Summary of the method: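 Human JAK2 (diluted to 0.75 nM before addition) phosphorylated a biotinylated peptide on streptavidin plates for 1 h at 30 °C. The substrate mix held 625 nM peptide, 25 μM ATP and 25 mM MgCl2 in 15 mM Tris pH 7.5, 0.01% Tween-20 and 1 mM DTT. Phosphotyrosine was detected by HRP antibody/TMB at 450 nm, and IC50 was obtained by non-linear regression; duplicates were run.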

IC50 (JAK3 tyrosine kinase) | GI50 ([1]; hydrochloride) | IC50 (JAK2 tyrosine kinase) | GI50 [1] | GI50 ([1]; maleate) | SMILES
0.044 µM | 0.071 µM | 0.00059 µM |  |  | C[C@H](Nc1cc(-c2cnn(C)c2)cc(Nc2cnccn2)n1)c1ccc(F)cc1 [Example 4, (S)—N^2-[1-(4-Fluorophenyl)ethyl]-4-(1-methyl-1H-pyrazol-4-yl)-N^6-(pyrazin-2-yl)pyridine-2,6-diamine hydrochloride]
0.013 µM |  | 0.00069 µM | 0.064 µM |  | C[C@H](Nc1nc(Nc2cnccn2)cc(N2CC(N3CCC(O)CC3)C2)n1)c1ccc(F)cc1 [Example 225]
0.38 µM |  | 0.0022 µM | 0.064 µM |  | CCCNC(=O)c1cc(Nc2cnccn2)nc(N[C@@H](C)c2ccc(F)cc2)c1 [Example 166, (S)-2-[1-(4-Fluorophenyl)ethylamino]-N-propyl-6-(pyrazin-2-ylamino)isonicotinamide]
0.042 µM |  | 0.00052 µM | 0.089 µM |  | CC(=O)N[C@@H]1CCN(c2cc(Nc3cnccn3)nc(N[C@@H](C)c3ccc(F)cc3)n2)C1 [Example 27, N—((R)-1-{2-[(S)-1-(4-Fluorophenyl)ethylamino]-6-(pyrazin-2-ylamino)pyrimidin-4-}pyrrolidin-3-yl)acetamide hydrochloride]
0.075 µM |  | 0.0015 µM |  | 0.06 µM | C[C@H](Nc1cc(-c2cnn(C)c2)cc(Nc2cnccn2)n1)c1ccc(F)cc1 [Example 30, (S)—N^2-[1-(4-Fluorophenyl)ethyl]-4-(1-methyl-1H-pyrazol-4-yl)-N^6-(pyrazin-2-yl)pyridine-2,6-diamine maleate]
0.011 µM |  | 0.00065 µM | 0.057 µM |  | C[C@H](Nc1nc(Nc2cnccn2)cc(N2CC(N3CCOCC3)C2)n1)c1ccc(F)cc1 [Example 223, (S)—N^2-[1-(4-Fluorophenyl)ethyl]-6-(3-morpholinoazetidin-1-yl)-N^4-(pyrazin-2-yl)pyrimidine-2,4-diamine]
0.016 µM |  | 0.0011 µM | 0.094 µM |  | C[C@H](Nc1nc(Nc2cnccn2)cc(N2CC(N3CCN(C)CC3)C2)n1)c1ccc(F)cc1 [Example 224, (S)—N^2-[1-(4-Fluorophenyl)ethyl]-6-[3-(4-methylpiperazin-1-yl)azetidin-1-yl]-N^4-(pyrazin-2-yl)pyrimidine-2,4-diamine]
0.018 µM |  | 0.00075 µM | 0.066 µM |  | C[C@H](Nc1nc(Nc2cnccn2)cc(N2CC(N3CCCC3)C2)n1)c1ccc(F)cc1 [Example 222, (S)—N^2-[1-(4-Fluorophenyl)ethyl]-N^4-(pyrazin-2-yl)-6-[3-(pyrrolidin-1-yl)azetidin-1-yl]pyrimidine-2,4-diamine]
0.18 µM |  | 0.0012 µM | 0.077 µM |  | CC(C)CNC(=O)c1cc(Nc2cnccn2)nc(N[C@@H](C)c2ccc(F)cc2)c1 [Example 170, (S)-2-[1-(4-Fluorophenyl)ethylamino]-N-isobutyl-6-(pyrazin-2-ylamino) isonicotinamide]
0.033 µM |  | 0.00059 µM | 0.097 µM |  | CCS(=O)(=O)NCC1CN(c2cc(Nc3cnccn3)nc(N[C@@H](C)c3ccc(F)cc3)n2)C1 [Example 231, (S)—N-[(1-{2-[1-(4-Fluorophenyl)ethylamino]-6-(pyrazin-2-ylamino)pyrimidin-4-yl}azetidin-3-yl)methyl]ethane sulfonamide]
0.019 µM |  | 0.0011 µM | 0.089 µM |  | C[C@H](Nc1nc(Nc2cnccn2)cc(N2CC(CO)C2)n1)c1ccc(F)cc1 [Example 228, (S)-(1-{2-[1-(4-Fluorophenyl)ethylamino]-6-(pyrazin-2-ylamino)pyrimidin-4-yl}azetidin-3-yl)methanol]
0.039 µM |  | 0.00042 µM | 0.09 µM |  | C[C@H](Nc1cc(-c2ccc(O)nc2)cc(Nc2cnccn2)n1)c1ccc(F)cc1 [Example 7, (S)-2′-[1-(4-Fluorophenyl)ethylamino]-6′-(pyrazin-2-ylamino)-3,4′-bipyridin-6-ol hydrochloride]
0.026 µM |  | 0.00041 µM |  | 0.087 µM | C[C@H](Nc1nc(Nc2cnccn2)cc(N2CCOCC2)n1)c1ccc(F)cc1 [Example 31, (S)—N^2-[1-(4-Fluorophenyl)ethyl]-6-morpholino-N^4-(pyrazin-2-yl)pyrimidine-2,4-diamine maleate]
0.06 µM |  | 0.0011 µM |  |  | C[C@H](Nc1nc(Nc2cnccn2)cc(-c2ccc(C(N)=O)cc2)n1)c1ccc(F)cc1 [Example 80, (S)-4-{2-[1-(4-Fluorophenyl)ethylamino]-6-(pyrazin-2-ylamino)pyrimidin-4-yl}benzamide hydrochloride]
0.036 µM |  | 0.00082 µM |  |  | C[C@H](Nc1nc(Nc2cnccn2)cc(-c2cn[nH]c2)n1)c1ccc(F)cc1 [Example 11, (S)—N^2-[1-(4-Fluorophenyl)ethyl]-N^4-(pyrazin-2-yl)-6-(1H-pyrazol-4-yl)pyrimidine-2,4-diamine hydrochloride]
0.053 µM |  | 0.0011 µM |  |  | C[C@H](Nc1nc(Nc2cnccn2)cc(-c2cc[nH]n2)n1)c1ccc(F)cc1 [Example 24, (S)—N^2-[1-(4-Fluorophenyl)ethyl]-N^4-(pyrazin-2-yl)-6-(1H-pyrazol-3-yl)pyrimidine-2,4-diamine hydrochloride]
0.13 µM |  | 0.0012 µM |  |  | C[C@H](Nc1nc(Nc2cnccn2)cc(N2CCC2)n1)c1ccc(F)cc1 [Example 43, (S)-6-(Azetidin-1-yl)-N^2-[1-(4-fluorophenyl)ethyl]-N^4-(pyrazin-2-yl)pyrimidine-2,4-diamine]
0.037 µM |  | 0.0018 µM |  |  | C[C@H](Nc1nc(Nc2cnccn2)cc(-c2cc[nH]c2)n1)c1ccc(F)cc1 [Example 66, (S)—N^2-[1-(4-Fluorophenyl)ethyl]-N^4-(pyrazin-2-yl)-6-(1H-pyrrol-3-yl)pyrimidine-2,4-diamine]
0.63 µM |  | 0.0088 µM |  |  | C[C@H](Nc1cc(-c2ccc(S(N)(=O)=O)cc2)cc(Nc2cnccn2)n1)c1ccc(F)cc1 [Example 126, (S)-4-{2-[1-(4-Fluorophenyl)ethylamino]-6-(pyrazin-2-ylamino)pyridin-4-yl}benzenesulfonamide]
